Structures are written as SMILES.

This assay deals with recombinant NL-Rluc virus. The assay can be described thus: Inhibition of HIV replication (NL-RLuc virus in MT-2 cells, luciferase readout). It is filed as cell-based. The following applies: Human immunodeficiency virus 1, MT2, 120 h, 5 days of incubation, 10% FBS.
Broadly, the EC50 is the concentration at which the effect is half-maximal. Take `Cc1ccc2c(c1)-c1cccc(c1)-c1cc3nc(C)c([C@H](OC(C)(C)C)C(=O)O)c(n3n1)N1CCC(C)(CC1)OC/C=C\C[C@H](C)O2` [Example 54, (2S)-2-(tert-Butoxy)-2-[(22S,24Z)-4,17,22,28-tetramethyl-21,27-dioxa-1,5,7,8-tetraazahexacyclo[26.2.2.1^6,^9.1^10,^14.0^2,^7.0^15,^20]tetratriaconta-2,4,6(34),8,10(33),11,13,15(20),16,18,24-undecaen-3-yl]acetic acid]: the 50% effective concentration (EC50) was determined as 0.13 µM.

As to `Cc1ccc2c(c1)-c1cccc(c1)-c1cc3nc(C)c([C@H](OC(C)(C)C)C(=O)O)c(n3n1)N1CCC(C)(CC1)OCCCC[C@H](C)O2` [Example 55, (2S)-2-(tert-Butoxy)-2-[(22S)-4,17,22,28-tetramethyl-21,27-dioxa-1,5,7,8-tetraazahexacyclo[26.2.2.1^6,^9.1^10,^14.0^2,^7.0^15,^20]tetratriaconta-2,4,6(34), 8, 10(33), 11, 13, 15 (20),16,18-decaen-3-yl]acetic acid], the EC50 turned out to be 0.014 µM. The same measure for `Cc1nc2cc3nn2c(c1[C@H](OC(C)(C)C)C(=O)O)N1CCC(C)(CC1)OCC=C[C@@H](C)Oc1ccncc1-c1cccc-3c1` [Example 56, (2S)-2-(tert-Butoxy)-2-[(22R)-4,22,27-trimethyl-21,26-dioxa-1,5,7,8,17-pentaazahexacyclo[25.2.2.1^6,^9.1^10,^14.0^2,^7.0^15,^20]tritriaconta-2,4,6(33),8,10(32), 11, 13, 15 (20),16,18,23-undecaen-3-yl]acetic acid]: 0.351 µM; for `Cc1nc2cc3nn2c(c1[C@H](OC(C)(C)C)C(=O)O)N1CCC(C)(CC1)OCC=C[C@H](C)Oc1ccncc1-c1cccc-3c1` [Example 57, (2S)-2-(tert-Butoxy)-2-[(22S)-4,22,27-trimethyl-21,26-dioxa-1,5,7,8,17-pentaazahexacyclo[25.2.2.1^6,^9.1^10,^14.0^2,^7.0^15,^20]tritriaconta-2,4,6(33),8,10(32), 11, 13, 15(20),16,18,23-undecaen-3-yl]acetic acid]: 0.3 µM; for `Cc1ccc2c(c1)-c1cccc(c1)-c1cc3nc(C)c([C@H](OC(C)(C)C)C(=O)O)c(n3n1)N1CCC(C)(CC1)OCC=C[C@@H](C)O2` [Example 58, (2S)-2-(tert-Butoxy)-2-[(22R)-4,17,22,2,7-tetramethyl-21,26-dioxa-1,5,7,8-tetraazahexacyclo[25.2.2.1^6,^9.1^10,^14.0^2,^7.0^15,^20]tritriaconta-2,4,6(33),8,10(32),11,13,15(20),16,18,23-undecaen-3-yl]acetic acid]: 0.074 µM. As for `Cc1ccc2c(c1)-c1cccc(c1)-c1cc3nc(C)c([C@H](OC(C)(C)C)C(=O)O)c(n3n1)N1CCC(C)(CC1)OCC=C[C@H](C)O2` [Example 59, (2S)-2-(tert-Butoxy)-2-[(22S)-4,17,22,27-tetramethyl-21,26-dioxa-1,5,7,8-tetraazahexacyclo[25.2.2.1^6,^9.1^10,^14.0^2,^7.0^15,^20]tritriaconta-2,4,6(33),8,10(32),11,13,15(20),16,18,23-undecaen-3-yl]acetic acid], the EC50 stood at 0.008 µM.

Consider `Cc1ccc2c(c1)-c1cccc(c1)-c1cc3nc(C)c([C@H](OC(C)(C)C)C(=O)O)c(n3n1)N1CCC(C)(CC1)OCCC[C@@H](C)O2` [Example 60, (2S)-2-(tert-Butoxy)-2-[(22R)-4,17,22,2,7-tetramethyl-21,26-dioxa-1,5,7,8-tetraazahexacyclo[25.2.2.1^6,^9.1^10,^14.0^2,^7.0^15,^20]tritriaconta-2,4,6(33),8,10(32),11,13,15(20),16,18-decaen-3-yl]acetic acid], for which the EC50 was 0.084 µM. Regarding `Cc1ccc2c(c1)-c1cccc(c1)-c1cc3nc(C)c([C@H](OC(C)(C)C)C(=O)O)c(n3n1)N1CCC(C)(CC1)OCCC[C@H](C)O2` [Example 61, (2S)-2-(tert-Butoxy)-2-[(22S)-4,17,22,27-tetramethyl-21,26-dioxa-1,5,7,8-tetraazahexacyclo[25.2.2.1^6,^9.1^10,^14.0^2,^7.0^15,^20]tritriaconta-2,4,6(33),8,10(32),11,13,15(20),16,18-decaen-3-yl]acetic acid], the EC50 is 0.01 µM.

For the compound `Cc1nc2cc3nn2c(c1[C@H](OC(C)(C)C)C(=O)O)N1CCC(C)(CC1)OCC=CCOc1ccc(F)cc1-c1cccc-3c1` [Example 62], the EC50 amounted to 0.007 µM. For the compound `Cc1nc2cc3nn2c(c1[C@H](OC(C)(C)C)C(=O)O)N1CCC(C)(CC1)OCCCCOc1ccc(F)cc1-c1cccc-3c1` [Example 63, (2S)-2-(tert-Butoxy)-2-{17-fluoro-4,27-dimethyl-21,26-dioxa-1,5,7,8-tetraazahexacyclo[25.2.2.1^6,^9.1^10,^14.0^2,^7.0^15,^20]tritriaconta-2,4,6(33),8,10(32),11,13,15(20),16,18-decaen-3-yl}acetic acid], the EC50 was determined as 0.007 µM.

In the case of `Cc1ccc2c(c1)-c1cccc(c1)-c1cc3nc(C)c([C@H](OC(C)(C)C)C(=O)O)c(n3n1)N1CCC(C)(CC1)OCC=CCC[C@H](C)O2` [Example 64, (2S)-2-(tert-Butoxy)-2-[(22S)-4,17,22,29-tetramethyl-21,28-dioxa-1,5,7,8-tetraazahexacyclo[27.2.2.1^6,^9.1^10,^14.0^2,^7.0^15,^20]pentatriaconta-2,4,6(35),8,10(34), 11, 13, 15(20),16,18,25-undecaen-3-yl]acetic acid], the EC50 was 0.026 µM.

Regarding `Cc1cc2c(cc1Cl)O[C@@H](C)CC=CCOC1(C)CCN(CC1)c1c([C@H](OC(C)(C)C)C(=O)O)c(C)nc3cc(nn13)-c1cccc-2c1` [Example 66, (2S)-2-(tert-Butoxy)-2-[(22S)-18-chloro-4,17,22,28-tetramethyl-21,27-dioxa-1,5,7,8-tetraazahexacyclo[26.2.2.1^6,^9.1^10,^14.0^2,^7.0^15,^20]tetratriaconta-2,4,6(34),8,10(33), 11, 13, 15(20),16,18,24-undecaen-3-yl]acetic acid], the EC50 came to 0.043 µM. The same measure for `Cc1cc2c(cc1Cl)O[C@@H](C)CCCCOC1(C)CCN(CC1)c1c([C@H](OC(C)(C)C)C(=O)O)c(C)nc3cc(nn13)-c1cccc-2c1` [Example 67, (2S)-2-(tert-butoxy)-2-[(22S)-18-chloro-4,17,22,28-tetramethyl-21,27-dioxa-1,5,7,8-tetraazahexacyclo[26.2.2.1^6,^9.1^10,^14.0^2,^7.0^15,^20]tetratriaconta-2,4,6(34),8,10(33), 11, 13, 15 (20),16,18-decaen-3-yl]acetic acid]: 0.109 µM; for `Cc1ccc2c(c1F)-c1cccc(c1)-c1cc3nc(C)c([C@H](OC(C)(C)C)C(=O)O)c(n3n1)N1CCC(C)(CC1)OC/C=C/C[C@H](C)O2` [Example 68, (2S)-2-(tert-Butoxy)-2-[(22S,^24E)-16-fluoro-4,17,22,28-tetramethyl-21,27-dioxa-1,5,7,8-tetraazahexacyclo[26.2.2.1^6,^9.1^10,^14. 0^2,^7.0^15,^20]tetratriaconta-2,4,6(34),8,10(33), 11, 13, 15 (20), 16,18,24-undecaen-3-yl]acetic acid]: 0.009 µM.

These data come from patent publication US8906929B2, “Inhibitors of human immunodeficiency virus replication” (priority 2012, dated 2014).
